Results taken from article PMC10343299, “S-Ethyl-Isothiocitrullin-Based Dipeptides and 1,2,4-Oxadiazole Pseudo-Dipeptides: Solid Phase Synthesis and Evaluation as NO Synthase Inhibitors” (Molecules, 2023).
Read-outs that look alike come from different tables or passages of the source.

Tests used:
bovine eNOS = target: T1, bovine eNOS (Bos taurus, UniProt P29473); assay: NOS inhibition, oxyhemoglobin (hemoglobin capture) test, recombinant eNOS; format: biochemical; conditions: recombinant enzyme, 10 µM arginine, triplicate, NI = <50% inhibition at 100 μM; for inhibition at 100 µM: read-out: IC50 (μM) eNOS (Bovine)
T1 construct: Full-length recombinant rat nNOS, mouse iNOS, bovine eNOS; made in house; host or cells: Escherichia coli

rat nNOS = target: T2, rat nNOS (Rattus norvegicus, UniProt P29476); assay: NOS inhibition, oxyhemoglobin (hemoglobin capture) test, recombinant nNOS; format: biochemical
T2 construct: Full-length recombinant rat nNOS, mouse iNOS, bovine eNOS; made in house; host or cells: Escherichia coli
Method: (§1) The inhibitory effects of all compounds against the three recombinant NOSs (rat nNOS, mouse iNOS, and bovine eNOS) were evaluated in 96-well plates using the oxyhemoglobin test. A first screening at 100 and 10 μM was performed, and the IC50 values were measured for compounds showing more than 50% inhibition at 100 μM (Table 1 and Table 2).
(§2) Full-length recombinant rat nNOS, mouse iNOS, bovine eNOS, and the heme domains of rat brain nNOS and mouse iNOS were expressed in Escherichia coli and purified as described previously.
(§3) NOS catalytic activity was measured using the hemoglobin capture assay. The test was performed at 30 °C in 96-well microplates using a final volume of 200 µL. The assay mixture contained 100 µM NADPH, 10 µM BH4, 6 µM HbO2, 100 µM DTT, 5 µM FAD, 5 µM FMN, 10 µM (nNOS and eNOS), or 20 µM (iNOS) arginine, all in a 100 mM Hepes buffer, pH 7.5, and, for constitutive n- and e-NOS, 10 µg/mL calmodulin, and 1 mM CaCl2. The studied compounds were introduced as 2 μL of ×100 concentrated solutions in DMSO, and the control experiments were performed with DMSO or the buffer only. The kinetics of NO production were measured at 401 nm using an Infinite F500 microplate reader (Tecan, Singapore).

mouse iNOS = target: T3, mouse iNOS (Mus musculus, UniProt P29477); assay: NOS inhibition, oxyhemoglobin (hemoglobin capture) test, recombinant iNOS; format: biochemical; conditions: recombinant enzyme, 20 µM arginine, triplicate, NI = <50% inhibition at 100 μM
T3 construct: Full-length recombinant rat nNOS, mouse iNOS, bovine eNOS; made in house; host or cells: Escherichia coli
T3 sequence (P29477 1-1144): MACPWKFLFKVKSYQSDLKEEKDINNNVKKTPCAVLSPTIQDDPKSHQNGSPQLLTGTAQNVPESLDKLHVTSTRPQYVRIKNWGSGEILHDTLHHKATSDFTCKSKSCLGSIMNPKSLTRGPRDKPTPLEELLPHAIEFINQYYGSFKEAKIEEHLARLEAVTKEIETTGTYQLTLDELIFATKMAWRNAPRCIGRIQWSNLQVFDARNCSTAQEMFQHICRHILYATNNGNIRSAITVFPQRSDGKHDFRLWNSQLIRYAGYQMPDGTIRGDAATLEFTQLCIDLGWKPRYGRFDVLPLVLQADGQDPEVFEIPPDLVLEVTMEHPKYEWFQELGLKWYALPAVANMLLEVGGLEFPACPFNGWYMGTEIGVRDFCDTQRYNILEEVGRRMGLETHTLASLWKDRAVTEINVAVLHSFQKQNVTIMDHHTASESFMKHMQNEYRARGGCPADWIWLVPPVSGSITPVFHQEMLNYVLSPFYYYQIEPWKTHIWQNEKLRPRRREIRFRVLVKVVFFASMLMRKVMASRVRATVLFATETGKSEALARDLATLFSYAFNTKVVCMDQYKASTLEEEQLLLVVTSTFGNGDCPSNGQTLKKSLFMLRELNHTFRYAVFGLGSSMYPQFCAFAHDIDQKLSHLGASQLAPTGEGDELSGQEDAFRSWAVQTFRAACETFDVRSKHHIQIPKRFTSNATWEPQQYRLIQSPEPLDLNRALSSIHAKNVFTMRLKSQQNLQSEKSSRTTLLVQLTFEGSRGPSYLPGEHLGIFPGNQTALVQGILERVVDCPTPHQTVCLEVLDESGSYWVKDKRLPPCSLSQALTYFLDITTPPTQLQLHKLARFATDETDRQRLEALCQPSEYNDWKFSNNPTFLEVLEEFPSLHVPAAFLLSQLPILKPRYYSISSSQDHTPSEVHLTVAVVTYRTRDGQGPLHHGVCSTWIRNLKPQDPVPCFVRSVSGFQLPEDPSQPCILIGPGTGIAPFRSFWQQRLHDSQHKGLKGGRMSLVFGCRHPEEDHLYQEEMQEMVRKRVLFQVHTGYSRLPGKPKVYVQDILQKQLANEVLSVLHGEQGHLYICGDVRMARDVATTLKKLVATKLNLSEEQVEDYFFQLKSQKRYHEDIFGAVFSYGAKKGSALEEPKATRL
Method: as §1, §2, §3

RAW 264.7 cells = assay: Cell viability, MTT assay; format: cell-based, murine; conditions: for Effect on cell viability (MTT): up to 100 μM
Method: Cell viability was evaluated in the murine macrophage RAW 264.7 cells using an MTT assay for compounds 18, 21, 26, and 30. This experiment was performed without or with LPS (1 µg/mL), which induces iNOS expression (Figure S1). […] Compound 30 only killed 20% of the cells at 500 μM (Figure S1A). In the presence of LPS (1 µg/mL), cell viability was reduced by 30% due to the inhibition by NO of key enzymes involved in cell metabolism (Figure S1B).
The macrophage cell line RAW 264.7 (a gift from Dr. A. Blangy, Montpellier, France) was cultured in Dulbecco’s Modified Eagle’s Medium (DMEM) supplemented with 10% FCS, 100 units/mL penicillin, 100 µg/mL streptomycin, and 2 mM L-glutamine.
Cellular NO production was measured using the Griess reagent (Sigma-Aldrich), which evaluates the nitrite content in culture media. Cellular toxicity was estimated by the MTT assay (Sigma-Aldrich) in RAW 264.7 cells after the induction (or not) of iNOS by LPS, according to the manufacturer’s recommendations.

[1] = dipeptide-like series, recombinant enzyme, 10 µM arginine, triplicate, NI = <50% inhibition at 100 μM
[2] = 1,2,4-oxadiazole series, recombinant enzyme, 10 µM arginine, triplicate, NI = <50% inhibition at 100 μM

T1 sequence (P29473 whole entry): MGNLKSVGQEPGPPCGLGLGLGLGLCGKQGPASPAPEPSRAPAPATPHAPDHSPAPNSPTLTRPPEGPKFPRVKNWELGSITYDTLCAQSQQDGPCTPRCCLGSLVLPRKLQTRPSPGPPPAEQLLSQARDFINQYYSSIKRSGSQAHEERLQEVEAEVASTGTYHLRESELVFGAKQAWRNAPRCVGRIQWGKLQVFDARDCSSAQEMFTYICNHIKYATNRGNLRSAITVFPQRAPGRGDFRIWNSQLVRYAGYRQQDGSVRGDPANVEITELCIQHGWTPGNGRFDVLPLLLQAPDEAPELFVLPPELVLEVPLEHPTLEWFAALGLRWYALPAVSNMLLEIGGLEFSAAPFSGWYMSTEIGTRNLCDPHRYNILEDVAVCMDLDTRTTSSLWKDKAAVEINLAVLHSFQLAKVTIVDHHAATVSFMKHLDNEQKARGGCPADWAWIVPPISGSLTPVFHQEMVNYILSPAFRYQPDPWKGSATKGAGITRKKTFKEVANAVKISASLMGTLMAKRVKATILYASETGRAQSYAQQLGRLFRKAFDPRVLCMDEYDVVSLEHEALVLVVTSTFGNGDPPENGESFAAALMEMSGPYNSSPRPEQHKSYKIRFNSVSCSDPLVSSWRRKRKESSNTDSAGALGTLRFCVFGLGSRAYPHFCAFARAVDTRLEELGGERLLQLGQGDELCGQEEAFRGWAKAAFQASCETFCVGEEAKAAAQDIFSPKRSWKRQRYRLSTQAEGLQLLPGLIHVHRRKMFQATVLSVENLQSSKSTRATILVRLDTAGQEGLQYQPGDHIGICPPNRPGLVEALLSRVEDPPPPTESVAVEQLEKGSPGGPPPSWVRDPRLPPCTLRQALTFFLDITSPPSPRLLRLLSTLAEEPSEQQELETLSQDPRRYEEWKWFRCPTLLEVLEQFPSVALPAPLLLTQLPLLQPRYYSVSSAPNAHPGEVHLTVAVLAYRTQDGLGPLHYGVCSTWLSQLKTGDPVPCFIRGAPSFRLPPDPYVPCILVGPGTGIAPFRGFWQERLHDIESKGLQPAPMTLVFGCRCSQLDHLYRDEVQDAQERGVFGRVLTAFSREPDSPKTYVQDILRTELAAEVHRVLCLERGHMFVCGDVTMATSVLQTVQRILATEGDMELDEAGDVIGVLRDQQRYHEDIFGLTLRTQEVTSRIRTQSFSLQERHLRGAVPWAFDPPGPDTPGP
T2 sequence (P29476 whole entry): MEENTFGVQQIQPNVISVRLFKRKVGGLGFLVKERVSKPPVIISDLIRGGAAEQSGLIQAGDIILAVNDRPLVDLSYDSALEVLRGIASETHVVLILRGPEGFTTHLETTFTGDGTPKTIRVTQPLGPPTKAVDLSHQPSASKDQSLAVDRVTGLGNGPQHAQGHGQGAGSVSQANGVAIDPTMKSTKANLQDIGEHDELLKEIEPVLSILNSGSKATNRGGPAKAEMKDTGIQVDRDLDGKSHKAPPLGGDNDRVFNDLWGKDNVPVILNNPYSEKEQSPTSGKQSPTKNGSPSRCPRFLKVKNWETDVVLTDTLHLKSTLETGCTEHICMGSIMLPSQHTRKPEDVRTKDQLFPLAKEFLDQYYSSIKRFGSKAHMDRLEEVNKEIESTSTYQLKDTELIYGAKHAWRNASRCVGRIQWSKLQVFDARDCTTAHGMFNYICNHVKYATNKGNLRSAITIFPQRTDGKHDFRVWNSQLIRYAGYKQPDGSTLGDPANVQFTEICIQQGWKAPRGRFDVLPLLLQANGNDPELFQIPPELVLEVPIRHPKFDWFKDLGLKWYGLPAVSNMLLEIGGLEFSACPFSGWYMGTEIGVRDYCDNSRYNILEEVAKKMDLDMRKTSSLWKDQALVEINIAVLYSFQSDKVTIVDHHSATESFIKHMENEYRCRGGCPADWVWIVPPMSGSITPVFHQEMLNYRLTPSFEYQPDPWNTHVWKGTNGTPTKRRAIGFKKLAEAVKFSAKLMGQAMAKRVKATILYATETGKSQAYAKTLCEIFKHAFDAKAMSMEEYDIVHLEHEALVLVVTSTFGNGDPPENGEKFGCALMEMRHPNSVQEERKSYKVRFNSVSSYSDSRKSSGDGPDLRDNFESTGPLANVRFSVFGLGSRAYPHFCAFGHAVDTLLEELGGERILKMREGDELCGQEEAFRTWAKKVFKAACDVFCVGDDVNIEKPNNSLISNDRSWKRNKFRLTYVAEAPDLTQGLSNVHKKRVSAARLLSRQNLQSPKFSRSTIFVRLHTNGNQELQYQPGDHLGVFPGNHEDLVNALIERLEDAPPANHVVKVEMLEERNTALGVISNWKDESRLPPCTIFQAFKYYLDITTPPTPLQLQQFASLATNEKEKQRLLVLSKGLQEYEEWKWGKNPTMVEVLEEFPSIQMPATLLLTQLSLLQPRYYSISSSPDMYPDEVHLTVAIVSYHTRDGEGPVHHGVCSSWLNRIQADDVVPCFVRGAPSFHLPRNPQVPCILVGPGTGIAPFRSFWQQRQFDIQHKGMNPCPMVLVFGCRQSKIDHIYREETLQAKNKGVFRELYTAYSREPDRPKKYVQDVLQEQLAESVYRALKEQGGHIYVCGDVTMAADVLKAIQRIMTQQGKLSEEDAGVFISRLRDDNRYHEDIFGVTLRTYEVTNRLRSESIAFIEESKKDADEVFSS

| inhibition at 100 µM (bovine eNOS; dipeptide-like series) [%] | IC50 (rat nNOS; [1]) [µM] | IC50 (mouse iNOS; dipeptide-like series) [µM] | IC50 (rat nNOS; [2]) [µM] | IC50 (mouse iNOS; 1,2,4-oxadiazole series) [µM] | Structure (SMILES) | also measured |
| --- | --- | --- | --- | --- | --- | --- |
| < 50 | 15.6 | 25.6 |  |  | CCSC(=N)NCCC[C@H](N)C(=O)N[C@@H]1CCCN(Cc2ccccc2)C1 [Compound 8] |  |
| < 50 | 51.1 | 51 |  |  | CCSC(=N)NCCC[C@H](N)C(=O)N[C@H]1CCCN(Cc2ccccc2O)C1 [Compound 9] |  |
|  | 2 | 23.9 |  |  | CCSC(=N)NCCC[C@H](N)C(=O)N[C@H]1CCCN(Cc2cc(O)ccc2O)C1 [Compound 10] | IC50 (bovine eNOS; dipeptide-like series): 26.7 µM |
|  |  | 73.4 |  |  | CCSC(=N)NCCC[C@H](N)C(=O)N[C@@H]1CCCN(Cc2cc(O)ccc2O)C1 [Compound 11] | IC50 (bovine eNOS; dipeptide-like series): 25.4 µM |
| < 50 |  | 46 |  |  | CCSC(=N)NCCC[C@H](N)C(=O)N[C@H]1CCCN(Cc2ccccc2[N+](=O)[O-])C1 [Compound 12] | inhibition at 100 µM (rat nNOS; dipeptide-like series, recombinant enzyme, 10 µM arginine, triplicate, NI = <50% inhibition at 100 μM, read-out: IC50 (μM) nNOS (Rat)): < 50% |
| < 50 | 30.6 | 78.9 |  |  | CCSC(=N)NCCC[C@H](N)C(=O)N[C@@H]1CCCN(Cc2ccccc2[N+](=O)[O-])C1 [Compound 13] |  |
| < 50 | 25.2 | 31.3 |  |  | CCSC(=N)NCCC[C@H](N)C(=O)N[C@H]1CCCN(Cc2cc(O)ccc2[N+](=O)[O-])C1 [Compound 15] |  |
| < 50 | 49.6 | 54.9 |  |  | CCSC(=N)NCCC[C@H](N)C(=O)N[C@H]1CCCN(Cc2cc(OC)c(OC)c(OC)c2)C1 [Compound 16] |  |
| < 50 | 15.4 |  |  |  | CCSC(=N)NCCC[C@H](N)C(=O)N[C@H]1CCCN(Cc2cccc(C(F)(F)F)c2)C1 [Compound 20] | inhibition at 100 µM (mouse iNOS; dipeptide-like series, read-out: IC50 (μM) iNOS (Mouse)): < 50% |
|  | 3.5 | 21.6 |  |  | CCSC(=N)NCCC[C@H](N)C(=O)N[C@H]1CCCN(Cc2ccc(-c3cccc([N+](=O)[O-])c3)cc2)C1 [Compound 24] | IC50 (bovine eNOS; dipeptide-like series): 18 µM |
| < 50 | 2.8 | 36.5 |  |  | CCSC(=N)NCCC[C@H](N)C(=O)N[C@H]1CCCN(Cc2cccc(-c3ccccc3)c2)C1 [Compound 25] |  |
| < 50 | 1.3 | 48.3 |  |  | CCSC(=N)NCCC[C@H](N)C(=O)N[C@H]1CCCN(Cc2cccc(-c3cccc([N+](=O)[O-])c3)c2)C1 [Compound 26] | Reversal of LPS-induced reduction of cell viability (RAW 264.7 cells; RAW 264.7, LPS 1 µg/mL): none partially reversed the LPS effect; Effect on cell viability (MTT) (RAW 264.7 cells; RAW 264.7, absence of LPS): fully toxic |
|  |  |  | 58.9 | 83.7 | CCSC(=N)NCCC[C@H](N)c1nc(CCN)no1 [Compound 28] | inhibition at 100 µM (bovine eNOS; 1,2,4-oxadiazole series): < 50% |
|  |  |  | 13.4 | 11.1 | CCSC(=N)NCCC[C@H](N)c1nc(CCNCc2ccccc2)no1 [Compound 29] | IC50 (bovine eNOS; 1,2,4-oxadiazole series): 17.9 µM |
|  |  |  | 1.6 | 1.3 | CCSC(=N)NCCC[C@H](N)c1nc(CCN(Cc2ccccc2)Cc2ccccc2)no1 [Compound 30] | IC50 (bovine eNOS; 1,2,4-oxadiazole series): 99.6 µM; Cells killed (RAW 264.7 cells; RAW 264.7, absence of LPS, 500 μM): 20%; Effect on cell viability (MTT) (RAW 264.7 cells; RAW 264.7, absence of LPS): did not modify cell viability |
|  |  |  | 9.9 | 11.1 | CCSC(=N)NCCC[C@H](N)c1nc(CCN(Cc2ccccc2C)Cc2ccccc2C)no1 [Compound 31] | inhibition at 100 µM (bovine eNOS; 1,2,4-oxadiazole series): < 50% |
|  |  |  | 60.1 | 51.6 | CCSC(=N)NCCC[C@H](N)c1nc(CCNCc2c(C)cccc2C)no1 [Compound 32] |  |
|  |  |  | 10.1 | 71.5 | CCSC(=N)NCCC[C@H](N)c1nc(CCN(Cc2c(C)cccc2C)Cc2c(C)cccc2C)no1 [Compound 33] | inhibition at 100 µM (bovine eNOS; 1,2,4-oxadiazole series): < 50% |
|  |  |  | 1.4 | 4 | CCSC(=N)NCCC[C@H](N)c1nc(CCN(Cc2cccc3ccccc23)Cc2cccc3ccccc23)no1 [Compound 34] | inhibition at 100 µM (bovine eNOS; 1,2,4-oxadiazole series): < 50% |
|  |  |  | 3.1 | 24.3 | CCSC(=N)NCCC[C@H](N)c1nc(CCN(Cc2ccccc2O)Cc2ccccc2O)no1 [Compound 36] | IC50 (bovine eNOS; 1,2,4-oxadiazole series): 20.2 µM |
|  |  |  | 0.3 | 15.8 | CCSC(=N)NCCC[C@H](N)c1nc(CCN(Cc2ccc([N+](=O)[O-])cc2)Cc2ccc([N+](=O)[O-])cc2)no1 [Compound 37] | IC50 (bovine eNOS; 1,2,4-oxadiazole series): 11.8 µM; Selectivity for nNOS against eNOS (rat nNOS; from IC50 values): ~40 fold; Selectivity for nNOS against iNOS (rat nNOS; from IC50 values): ~50 fold; Gain in nNOS inhibition potency over non-substituted compound 28 (rat nNOS; times more potent than 28): 200 |
|  |  |  | 0.6 | 15.9 | CCSC(=N)NCCC[C@H](N)c1nc(CCN(Cc2cccc([N+](=O)[O-])c2)Cc2cccc([N+](=O)[O-])c2)no1 [Compound 38] | IC50 (bovine eNOS; 1,2,4-oxadiazole series): 3.9 µM |
|  |  |  | 27 | 8 | CCSC(=N)NCCC[C@H](N)c1nc(CCNCc2ccccc2[N+](=O)[O-])no1 [Compound 39] | IC50 (bovine eNOS; 1,2,4-oxadiazole series): 48.2 µM |
|  |  |  | 3 | 36.3 | CCSC(=N)NCCC[C@H](N)c1nc(CCNCc2cc(O)ccc2[N+](=O)[O-])no1 [Compound 41] |  |

| Structure (SMILES) | inhibition at 100 µM (bovine eNOS; dipeptide-like series) [%] | IC50 (rat nNOS; [1]) [µM] | IC50 (mouse iNOS; dipeptide-like series) [µM] | IC50 (rat nNOS; [2]) [µM] | IC50 (mouse iNOS; 1,2,4-oxadiazole series) [µM] | also measured |
| --- | --- | --- | --- | --- | --- | --- |
| CCSC(=N)NCCC[C@H](N)c1nc(CCN(Cc2cc(O)ccc2[N+](=O)[O-])Cc2cc(O)ccc2[N+](=O)[O-])no1 [Compound 42] |  |  |  | 1.1 | 7 | inhibition at 100 µM (bovine eNOS; 1,2,4-oxadiazole series): < 50% |
